Test: recombinant UMI read abundance after kanamycin selection (control-corrected) (log10(CPM+1)); higher = more efficient recombination; extreme values may be limits of the assay; sequences stand for … in AGTGCAGAGAAAATCGGCCAGTTTTCTCTGCCTGCAGTCCGCATGCCGTGGGACCCCTTGGGTTCTAACCTGTTGCCTAGATTTATGCAGCGGACTGCCTTTCTCCCAAAGTGATAAACCGG…AGGTTGGTTTCACT; site = the 11-nt donor
Method in brief: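 Sequencing read counts were converted to CPM, averaged over two replicates and scaled by control-derived factors. Results are given as log10(CPM+1). The reads covered the donor–target junction of recombinant UMIs from a pooled Escherichia coli screen of donor and donor-binding-loop pairs for the IS621 bridge recombinase.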
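Also: IS621 bridge recombinase in Escherichia coli cells against a fixed T5 target plasmid.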

Sequence | recombinant UMI read abundance (log10)
CACGGCCCATGGACCGGTTTTCCCGGTAATCCGTATTTGTT (site CACGGCCCTAC) | 0.017
CACGGCCCATGGACCGGTTTTCCCGGTAATCCGTATTTGTT (site CACGGCCCTAG) | 1.14
CACGGCCCATGGACCGGTTTTCCCGGTAATCCGTATTTGTT (site CACGGCCCTAT) | 0.437
CACGGCCCATGGACCGGTTTTCCCGGTAATCCGTATTTGTT (site CACGGCCCTCA) | 0.0268
CACGGCCCATGGACCGGTTTTCCCGGTAATCCGTATTTGTT (site CACGGCCCTGA) | 1.16
CACGGCCCATGGACCGGTTTTCCCGGTAATCCGTATTTGTT (site CACGGCCCTTA) | 0.0328
CACGGCCCATGGACCGGTTTTCCCGGTAATCCGTATTTGTT (site CACGGCGCTAA) | 0.0318
CACGGCCCATGGACCGGTTTTCCCGGTAATCCGTATTTGTT (site CACGGCTCTAA) | 1.79
CACGGCCCATGGACCGGTTTTCCCGGTAATCCGTATTTGTT (site CACGGGCCTAA) | 0
CACGGCCCATGGACCGGTTTTCCCGGTAATCCGTATTTGTT (site CACGGTCCTAA) | 0.311
CACGGCCCATGGACCGGTTTTCCCGGTAATCCGTATTTGTT (site CACGTCCCTAA) | 0.0115
CACGGCCCATGGACCGGTTTTCCCGGTAATCCGTATTTGTT (site CACTGCCCTAA) | 0.0132
CACGGCCCATGGACCGGTTTTCCCGGTAATCCGTATTTGTT (site CAGGGCCCTAA) | 0.00724
CACGGCCCATGGACCGGTTTTCCCGGTAATCCGTATTTGTT (site CATGGCCCTAA) | 0.013
CACGGCCCATGGACCGGTTTTCCCGGTAATCCGTATTTGTT (site CCCGGCCCTAA) | 0.0158
CACGGCCCATGGACCGGTTTTCCCGGTAATCCGTATTTGTT (site CGCGGCCCTAA) | 0.0132
CACGGCCCATGGACCGGTTTTCCCGGTAATCCGTATTTGTT (site CTCGGCCCTAA) | 0.0153
CACGGCCCATGGACCGGTTTTCCCGGTAATCCGTATTTGTT (site GACGGCCCTAA) | 0.0197
CACGGCCCATGGACCGGTTTTCCCGGTAATCCGTATTTGTT (site TACGGCCCTAA) | 0.0279

Sequence | recombinant UMI read abundance (log10)
CACGGCGCATGGACCGGTTTTCCCGGTAATCCGTATTTGTT (site CACGGCACTAA) | 1.5
CACGGCGCATGGACCGGTTTTCCCGGTAATCCGTATTTGTT (site CACGGCCCTAA) | 0.445
CACGGCGCATGGACCGGTTTTCCCGGTAATCCGTATTTGTT (site CACGGCGCTAA) | 1.74
CACGGCGCATGGACCGGTTTTCCCGGTAATCCGTATTTGTT (site CACGGCTCTAA) | 1.22
CACGTATCATGGACCGGTTTTCCCGGTAATCCGTATTTGAC (site CACGTATCTGT) | 2.78
CACGTATCATGGACCGGTTTTCCCGGTAATCCGTATTTGAC (site CTAGTATCTGT) | 1.1
CACGTCACATGGACCGGTTTTCCCGGTAATCCGTATTTGGG (site CAAGTCACTCC) | 0.0977
CACGTCACATGGACCGGTTTTCCCGGTAATCCGTATTTGGG (site CACGTCACTCC) | 0.0104
CACGTCACATGGACCGGTTTTCCCGGTAATCCGTATTTGGG (site CAGGTCACTCC) | 0.00985
CACGTCACATGGACCGGTTTTCCCGGTAATCCGTATTTGGG (site CATGTCACTCC) | 0.012
CACGTCCCATGGACCGGTTTTCCCGGTAATCCGTATTTGTT (site CACGACCCTAA) | 0.22
CACGTCCCATGGACCGGTTTTCCCGGTAATCCGTATTTGTT (site CACGCCCCTAA) | 0.263
CACGTCCCATGGACCGGTTTTCCCGGTAATCCGTATTTGTT (site CACGGCCCTAA) | 0.00825
CACGTCCCATGGACCGGTTTTCCCGGTAATCCGTATTTGTT (site CACGTCCCTAA) | 0.326
CACGTGGCATGGACCGGTTTTCCCGGTAATCCGTATTTGGA (site CACATGGCTTC) | 0.429
CACGTGGCATGGACCGGTTTTCCCGGTAATCCGTATTTGGA (site CACCTGGCTTC) | 0.475
CACGTGGCATGGACCGGTTTTCCCGGTAATCCGTATTTGGA (site CACGTGGCTTC) | 1.2
CACGTGGCATGGACCGGTTTTCCCGGTAATCCGTATTTGGA (site CACTTGGCTTC) | 0.235
CACTAGCCATGGACCGGTTTTCCCGGTAATCCGTATTTGCC (site CACTAGCCTGG) | 0.665

Sequence | recombinant UMI read abundance (log10)
CACTAGCCATGGACCGGTTTTCCCGGTAATCCGTATTTGCC (site CCCTAGCCTGG) | 0
CACTAGCCATGGACCGGTTTTCCCGGTAATCCGTATTTGCC (site CGCTAGCCTGG) | 0
CACTAGCCATGGACCGGTTTTCCCGGTAATCCGTATTTGCC (site CTCTAGCCTGG) | 0
CACTAGGCATGGACCGGTTTTCCCGGTAATCCGTATTTGAT (site CACTAGGCTAT) | 1.33
CACTCGACATGGACCGGTTTTCCCGGTAATCCGTATTTGTG (site CACTCGACTCA) | 0.319
CACTCGTCATGGACCGGTTTTCCCGGTAATCCGTATTTGCC (site CACTCATCTGG) | 2.88
CACTCGTCATGGACCGGTTTTCCCGGTAATCCGTATTTGCC (site CACTCCTCTGG) | 0
CACTCGTCATGGACCGGTTTTCCCGGTAATCCGTATTTGCC (site CACTCGTCTGG) | 3.2
CACTCGTCATGGACCGGTTTTCCCGGTAATCCGTATTTGCC (site CACTCTTCTGG) | 0
CACTCTTCATGGACCGGTTTTCCCGGTAATCCGTATTTGTT (site CACTCTTCTAA) | 1.58
CACTGACCATGGACCGGTTTTCCCGGTAATCCGTATTTGGG (site CACTGACCTCC) | 0.00646
CACTGCTCATGGACCGGTTTTCCCGGTAATCCGTATTTGCC (site CACTACTCTGG) | 2
CACTGCTCATGGACCGGTTTTCCCGGTAATCCGTATTTGCC (site CACTCCTCTGG) | 0
CACTGCTCATGGACCGGTTTTCCCGGTAATCCGTATTTGCC (site CACTGCTCTGG) | 2.93
CACTGCTCATGGACCGGTTTTCCCGGTAATCCGTATTTGCC (site CACTTCTCTGG) | 0
CACTTCTCATGGACCGGTTTTCCCGGTAATCCGTATTTGCC (site CACTACTCTGG) | 1.09
CACTTCTCATGGACCGGTTTTCCCGGTAATCCGTATTTGCC (site CACTCCTCTGG) | 1.41
CACTTCTCATGGACCGGTTTTCCCGGTAATCCGTATTTGCC (site CACTGCTCTGG) | 0
CACTTCTCATGGACCGGTTTTCCCGGTAATCCGTATTTGCC (site CACTTCTCTGG) | 2.12

Source: the supplement of paper PMC11208160
